This is an account of results in US9725445B2, “Cycloalkyl nitrile pyrazolo pyridones as Janus kinase inhibitors” (Merck Sharp & Dohme Corp., priority 2013, dated 2017).

One experiment addresses JAK1 (Homo sapiens (Human), UniProt P23458). Kind of experiment: Jak biochemical HTRF assay, JAK1. The note with it: HTRF biochemical assay, recombinant GST-tagged catalytic domain; read-out: JAK1 IC50.
For a further experiment, the target named is JAK2 (Homo sapiens (Human), UniProt O60674). The experiment can be described thus: Jak biochemical HTRF assay, JAK2. The note with it: HTRF biochemical assay, recombinant GST-tagged catalytic domain; read-out: JAK2 IC50.
JAK2, sequence (O60674 849-1124): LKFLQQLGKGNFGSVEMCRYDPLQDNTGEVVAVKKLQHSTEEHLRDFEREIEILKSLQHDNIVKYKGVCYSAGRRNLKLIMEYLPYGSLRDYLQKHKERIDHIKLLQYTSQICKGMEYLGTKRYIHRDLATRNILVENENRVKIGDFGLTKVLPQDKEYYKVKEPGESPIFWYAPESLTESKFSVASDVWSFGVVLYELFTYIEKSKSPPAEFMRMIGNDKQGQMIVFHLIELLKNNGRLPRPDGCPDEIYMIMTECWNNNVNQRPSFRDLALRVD

One may read the IC50 as the midpoint of a concentration-inhibition curve.

JAK1, sequence (P23458 875-1153): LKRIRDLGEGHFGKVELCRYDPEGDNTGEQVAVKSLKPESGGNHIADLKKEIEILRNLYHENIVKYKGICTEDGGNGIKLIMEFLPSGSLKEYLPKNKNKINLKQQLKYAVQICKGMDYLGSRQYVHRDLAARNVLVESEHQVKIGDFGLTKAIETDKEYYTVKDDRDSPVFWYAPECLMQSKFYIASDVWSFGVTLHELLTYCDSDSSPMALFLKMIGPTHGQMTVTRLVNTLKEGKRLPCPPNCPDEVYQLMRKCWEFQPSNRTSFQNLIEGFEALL

`N#C[C@H]1CCCC[C@@H]1n1nc(Nc2ccc(C3(N)CCC3)cc2)c2c(=O)[nH]ccc21` [Example 12-2, (1S,2S)-2-(3-((4-(1-aminocyclobutyl)phenyl)amino)-4-oxo-4,5-dihydro-1H-pyrazolo[4,3-c]pyridin-1-yl)cyclohexanecarbonitrile]: the IC50 was 0.36 nM at JAK1 and 0.32 nM on JAK2.

As to `N#C[C@H]1CCCC[C@@H]1n1nc(Nc2ccc3c(c2)CC(C(=O)O)C3)c2c(=O)[nH]ccc21` (stereo partly drawn) [Example 13-1, 5-((1-((1S,2S)-2-Cyanocyclohexyl)-4-oxo-4,5-dihydro-1H-pyrazolo[4,3-c]pyridin-3-yl)amino)-2,3-dihydro-1H-indene-2-carboxylic acid], the IC50 on JAK1 amounted to 0.47 nM; on JAK2, 3.4 nM.

Regarding `N#C[C@H]1CCCC[C@@H]1n1nc(Nc2ccc(-c3ncco3)cc2)c2c(=O)[nH]ccc21` [Example 15-1, (1S,2S)-2-(3-{[4-(1,3-Oxazol-2-yl)phenyl]amino}-4-oxo-4,5-dihydro-1H-pyrazolo[4,3-c]pyridin-1-yl)cyclohexanecarbonitrile], the results for the IC50 at JAK1 and at JAK2 were 0.13 nM and 1.9 nM, respectively.

On to `N#C[C@H]1CCCC[C@@H]1n1nc(Nc2ccc(-c3nccs3)cc2)c2c(=O)[nH]ccc21` [Example 15-2, (1S,2S)-2-(4-oxo-3-{[4-(1,3-thiazol-2-yl)phenyl]amino}-4,5-dihydro-1H-pyrazolo[4,3-c]pyridin-1-yl)cyclohexanecarbonitrile], for which the figures for the IC50 at JAK1 and on JAK2 were 0.26 nM and 3.6 nM, respectively.

`N#C[C@H]1CCCC[C@@H]1n1nc(Nc2ccc(-c3ncon3)cc2)c2c(=O)[nH]ccc21` [Example 15-3, (1S,2S)-2-(3-{[4-(1,2,4-oxadiazol-3-yl)phenyl]amino}-4-oxo-4,5-dihydro-1H-pyrazolo[4,3-c]pyridin-1-yl)cyclohexanecarbonitrile]: the IC50 was 0.51 nM on JAK1 and 3.6 nM at JAK2.

`N#C[C@H]1CCCC[C@@H]1n1nc(Nc2ccc(-c3ccno3)cc2)c2c(=O)[nH]ccc21` [Example 15-5, (1S,2S)-2-{3-[(4-isoxazol-5-ylphenyl)amino]-4-oxo-4,5-dihydro-1H-pyrazolo[4,3-c]pyridin-1-yl}cyclohexanecarbonitrile]: the 50% inhibitory concentration (IC50) worked out at 0.32 nM on JAK1 and 3.2 nM on JAK2.

As to `N#C[C@H]1CCCC[C@@H]1n1nc(Nc2ccc(-c3ncno3)cc2)c2c(=O)[nH]ccc21` [Example 15-6, (1S,2S)-2-(3-{[4-(1,2,4-oxadiazol-5-yl)phenyl]amino}-4-oxo-4,5-dihydro-1H-pyrazolo[4,3-c]pyridin-1-yl)cyclohexanecarbonitrile], the IC50 was 0.55 nM at JAK1 and 3.6 nM on JAK2.

With `CC1(C)C(=O)Nc2cc(Nc3nn([C@H]4CCCC[C@@H]4C#N)c4cc[nH]c(=O)c34)ccc21` [Example 15-7, (1S,2S)-2-{3-[(3,3-dimethyl-2-oxo-2,3-dihydro-1H-indol-6-yl)amino]-4-oxo-4,5-dihydro-1H-pyrazolo[4,3-c]pyridin-1-yl}cyclohexanecarbonitrile], the IC50 at JAK1 stood at 0.11 nM; at JAK2, 1.4 nM.

For `N#C[C@H]1CCCC[C@@H]1n1nc(Nc2ccc(-c3cnco3)cc2)c2c(=O)[nH]ccc21` [Example 15-8, (1S,2S)-2-(3-{[4-(1,3-oxazol-5-yl)phenyl]amino}-4-oxo-4,5-dihydro-1H-pyrazolo[4,3-c]pyridin-1-yl)cyclohexanecarbonitrile], the IC50 on JAK1 worked out at 0.14 nM; on JAK2 it was 0.27 nM.

`N#C[C@H]1CCCC[C@@H]1n1nc(Nc2ccc(C3(O)COC3)cc2)c2c(=O)[nH]ccc21` [Example 15-9, (1S,2S)-2-(3-{[4-(3-hydroxyoxetan-3-yl)phenyl]amino}-4-oxo-4,5-dihydro-1H-pyrazolo[4,3-c]pyridin-1-yl)cyclohexanecarbonitrile]: the values for the IC50 at JAK1 and on JAK2 were 0.32 nM and 1.1 nM, respectively.

`Cc1nc2ccc(Nc3nn([C@H]4CCCC[C@@H]4C#N)c4cc[nH]c(=O)c34)cc2s1` [Example 15-10, (1S,2S)-2-{3-[(2-methyl-1,3-benzothiazol-6-yl)amino]-4-oxo-4,5-dihydro-1H-pyrazolo[4,3-c]pyridin-1-yl}cyclohexanecarbonitrile]: the IC50 was 0.092 nM on JAK1 and 1.6 nM on JAK2.

In the case of `CC1(c2ccc(Nc3nn([C@H]4CCCC[C@@H]4C#N)c4cc[nH]c(=O)c34)cc2)COC1` [Example 15-13, (1S,2S)-2-(3-{[4-(3-methyloxetan-3-yl)phenyl]amino}-4-oxo-4,5-dihydro-1H-pyrazolo[4,3-c]pyridin-1-yl)cyclohexanecarbonitrile], the IC50 was found to be 0.22 nM at JAK1 and 0.72 nM at JAK2.

As for `N#CCCn1cc(-c2ccc(Nc3nn([C@H]4CCCC[C@@H]4C#N)c4cc[nH]c(=O)c34)cc2)cn1` [Example 15-14, (1S,2S)-2-[3-({4-[1-(2-cyanoethyl)-1H-pyrazol-4-yl]phenyl}amino)-4-oxo-4,5-dihydro-1H-pyrazolo[4,3-c]pyridin-1-yl]cyclohexanecarbonitrile], the IC50 at JAK1 stood at 0.065 nM; on JAK2 it was 1.1 nM.

Regarding `CCOC(=O)c1cnn(-c2ccc(Nc3nn([C@H]4CCCC[C@@H]4C#N)c4cc[nH]c(=O)c34)cc2C)c1` [Example 15-15, ethyl 1-[4-({1-[(1S,2S)-2-cyanocyclohexyl]-4-oxo-4,5-dihydro-1H-pyrazolo[4,3-c]pyridin-3-yl}amino)-2-methylphenyl]-1H-pyrazole-4-carboxylate], the IC50 on JAK1 was determined as 1.7 nM; on JAK2 it was 5.9 nM.

In the case of `CC(C)OC(=O)c1ccc2cc(Nc3nn([C@H]4CCCC[C@@H]4C#N)c4cc[nH]c(=O)c34)ccc2n1` [Example 15-16, isopropyl 6-((1-((1S,2S)-2-cyanocyclohexyl)-4-oxo-4,5-dihydro-1H-pyrazolo[4,3-c]pyridin-3-yl)amino)quinoline-2-carboxylate], the IC50 turned out to be 0.26 nM on JAK1 and 3.8 nM on JAK2.

For the molecule `N#C[C@H]1CCCC[C@@H]1n1nc(Nc2ccc(-c3noc(=O)[nH]3)cc2)c2c(=O)[nH]ccc21` [Example 15-17, (1S,2S)-2-(4-oxo-3-{[4-(5-oxo-4,5-dihydro-1,2,4-oxadiazol-3-yl)phenyl]amino}-4,5-dihydro-1H-pyrazolo[4,3-c]pyridin-1-yl)cyclohexanecarbonitrile], the IC50 at JAK1 was found to be 0.17 nM; on JAK2, 2.9 nM.

In the case of `Cc1cc(Nc2nn([C@H]3CCCC[C@@H]3C#N)c3cc[nH]c(=O)c23)ccc1-c1cnn(CCC#N)c1` [Example 15-18, (1S,2S)-2-[3-({4-[1-(2-cyanoethyl)-1H-pyrazol-4-yl]-3-methylphenyl}amino)-4-oxo-4,5-dihydro-1H-pyrazolo[4,3-c]pyridin-1-yl]cyclohexanecarbonitrile], the IC50 at JAK1 came to 0.17 nM; on JAK2, 2.3 nM.

Take `N#C[C@H]1CCCC[C@@H]1n1nc(Nc2ccc(C3(C(F)(F)F)CC3)cc2)c2c(=O)[nH]ccc21` [Example 15-19]: the IC50 at JAK1 worked out at 1 nM; at JAK2 it was 8.1 nM.

As to `CC(C)(C)N1Cc2cc(Nc3nn([C@H]4CCCC[C@@H]4C#N)c4cc[nH]c(=O)c34)ccc2C1=O` [Example 15-20, (1S,2S)-2-{3-[(2-tert-butyl-1-oxo-2,3-dihydro-1H-isoindol-5-yl)amino]-4-oxo-4,5-dihydro-1H-pyrazolo[4,3-c]pyridin-1-yl}cyclohexanecarbonitrile], the IC50 was determined as 0.069 nM at JAK1 and 0.48 nM on JAK2.

As for `N#C[C@H]1CCCC[C@@H]1n1nc(Nc2ccc(C3CCNCC3)cc2)c2c(=O)[nH]ccc21` [Example 15-25, (1S,2S)-2-{4-oxo-3-[(4-piperidin-4-ylphenyl)amino]-4,5-dihydro-1H-pyrazolo[4,3-c]pyridin-1-yl}cyclohexanecarbonitrile], the values for the concentration for half-maximal inhibition (IC50) on JAK1 and on JAK2 were 0.48 nM and 0.98 nM, respectively.

In the case of `CC(=O)N1Cc2ccc(Nc3nn([C@H]4CCCC[C@@H]4C#N)c4cc[nH]c(=O)c34)cc2C1` [Example 15-26, (1S,2S)-2-{3-[(2-acetyl-2,3-dihydro-1H-isoindol-5-yl)amino]-4-oxo-4,5-dihydro-1H-pyrazolo[4,3-c]pyridin-1-yl}cyclohexanecarbonitrile], the IC50 is 0.23 nM on JAK1 and 0.92 nM on JAK2.

On to `CC(C)(c1ccc(Nc2nn([C@H]3CCCC[C@@H]3C#N)c3cc[nH]c(=O)c23)cc1)n1nccn1` [Example 15-29, (1S,2S)-2-[3-({4-[1-methyl-1-(2H-1,2,3-triazol-2-yl)ethyl]phenyl}amino)-4-oxo-4,5-dihydro-1H-pyrazolo[4,3-c]pyridin-1-yl]cyclohexanecarbonitrile], for which the IC50 amounted to 0.14 nM on JAK1 and 0.24 nM on JAK2.

For the molecule `Cc1cc(Nc2nn([C@H]3CCCC[C@@H]3C#N)c3cc[nH]c(=O)c23)ccc1C(C)(C)n1nccn1` [Example 15-32, (1S,2S)-2-[3-({3-methyl-4-[1-methyl-1-(2H-1,2,3-triazol-2-yl)ethyl]phenyl}amino)-4-oxo-4,5-dihydro-1H-pyrazolo[4,3-c]pyridin-1-yl]cyclohexanecarbonitrile], the IC50 turned out to be 0.26 nM at JAK1 and 0.15 nM on JAK2.

`Cc1cc(Nc2nn([C@H]3CCCC[C@@H]3C#N)c3cc[nH]c(=O)c23)ccc1C(C)(C)n1ccnn1` [Example 15-33, (1S,2S)-2-[3-({3-methyl-4-[1-methyl-1-(1H-1,2,3-triazol-1-yl)ethyl]phenyl}amino)-4-oxo-4,5-dihydro-1H-pyrazolo[4,3-c]pyridin-1-yl]cyclohexanecarbonitrile]: the IC50 at JAK1 and on JAK2 was 0.17 nM each time.

As for `N#C[C@H]1CCCC[C@@H]1n1nc(Nc2ccc3c(c2)CN(C2CCCCC2)C3=O)c2c(=O)[nH]ccc21` [Example 15-34, (1S,2S)-2-{3-[(2-cyclohexyl-1-oxo-2,3-dihydro-1H-isoindol-5-yl)amino]-4-oxo-4,5-dihydro-1H-pyrazolo[4,3-c]pyridin-1-yl}cyclohexanecarbonitrile], the IC50 at JAK1 came out at 0.082 nM; on JAK2 it was 0.62 nM.
